Data from ChEMBL document CHEMBL4321806 (J Med Chem, 2019).
Activity calls are given as the source filed them. The calls are words filed in the database; no cut-off is given here.

Experiments:
[1] = Antiproliferative activity against human LCC6 cells assessed as reduction in cell viability after 5 days by MTS/PMS assay; type: functional, cell-based; settings: LCC-6, 120 h
[2] = system: HEK293; experiment: Cytotoxicity against human HEK293 cells assessed as reduction in cell viability after 5 days by MTS/PMS assay; type: cell-based; settings: HEK293, 120 h
[3] = system: 2008; experiment: Antiproliferative activity against human 2008 cells assessed as reduction in cell viability after 5 days by MTS/PMS assay; type: functional, cell-based; settings: Homo sapiens, 2008, 120 h
[4] = biological target: T1, Broad substrate specificity ATP-binding cassette transporter ABCG2 (Homo sapiens, UniProt Q9UNQ0); experiment: Inhibition of BCRP (unknown origin)
T1 sequence (Q9UNQ0 whole entry): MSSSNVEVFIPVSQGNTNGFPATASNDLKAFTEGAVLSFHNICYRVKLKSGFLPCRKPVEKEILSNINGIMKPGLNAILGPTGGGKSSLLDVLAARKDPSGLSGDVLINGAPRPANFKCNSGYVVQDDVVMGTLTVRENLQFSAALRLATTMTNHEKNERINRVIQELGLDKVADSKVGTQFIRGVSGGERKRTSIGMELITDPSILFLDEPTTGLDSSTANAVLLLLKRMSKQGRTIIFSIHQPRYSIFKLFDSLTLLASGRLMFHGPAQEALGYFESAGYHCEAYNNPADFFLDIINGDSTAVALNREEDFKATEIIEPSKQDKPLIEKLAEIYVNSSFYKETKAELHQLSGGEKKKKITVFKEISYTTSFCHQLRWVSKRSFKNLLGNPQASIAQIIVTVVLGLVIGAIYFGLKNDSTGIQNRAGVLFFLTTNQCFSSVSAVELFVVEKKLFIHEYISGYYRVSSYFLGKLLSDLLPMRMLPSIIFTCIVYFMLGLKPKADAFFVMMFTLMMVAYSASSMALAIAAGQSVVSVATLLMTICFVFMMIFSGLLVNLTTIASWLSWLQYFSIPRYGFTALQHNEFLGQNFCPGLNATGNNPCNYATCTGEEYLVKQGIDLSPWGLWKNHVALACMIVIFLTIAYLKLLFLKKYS

[5] = system: HFF-1; experiment: Cytotoxicity against human HFF1 cells assessed as reduction in cell viability; type: cell-based
[6] = Cytotoxicity against mouse L929 cells assessed as reduction in cell viability
[7] = system: NIH3T3; experiment: Cytotoxicity against mouse 3T3 cells assessed as reduction in cell viability; type: cell-based
[8] = biological target: T1, Broad substrate specificity ATP-binding cassette transporter ABCG2; experiment: Inhibition of vanadate sensitive BCRP ATPase activity in human S1-M1-80 cell membranes preincubated for 30 mins followed by ATP addition and measured after 1 hr by colorimetric assay
[9] = biological target: T1, Broad substrate specificity ATP-binding cassette transporter ABCG2; experiment: Inhibition of BCRP (unknown origin) expressed in human HEK293/R2 cells assessed as increase in intracellular topotecan accumulation by measuring fold change at 1 uM after 120 mins in presence of topotecan by flow cytometry analysis relative to control; settings: 2 h
[10] = species: Homo sapiens; experiment: Effect on BCRP protein expression in human HEK293/R2 cells at 1 to 3 uM after 4 days by flow cytometric analysis; type: functional, cell-based
[11] = system: HEK293; experiment: Effect on intracellular topotecan level in human HEK293 cells at 5 uM up to 15 mins by flow cytometric analysis; type: functional, cell-based

SMILES | IC50 [5] | IC50 [6] | IC50 [7] | other results
O=C1c2c(O)ccc(O)c2C(=O)c2c(NCCNCCO)ccc(NCCNCCO)c21 [MITOXANTRONE] |  |  |  | IC50 [1]: 0.0374 µM; IC50 [2]: 0.0117 µM; IC50 [3]: 0.0078 µM
COc1ccc2c3c([nH]c2c1)[C@H](C=C(C)C)N1C(=O)[C@@H]2CCCN2C(=O)[C@@H]1C3 [FUMITREMORGIN] |  |  |  | EC50 [4]: 1 to 5 µM
COC(=O)c1cccc(COc2c(-c3ccc(OCCOCCn4cc(CN(Cc5cn(CCOCCOc6ccc(-c7oc8ccccc8c(=O)c7OCc7cccc(C(=O)OC)c7)cc6)nn5)c5ccccc5)nn4)cc3)oc3ccccc3c2=O)c1 | > 100 µM | > 100 µM | > 100 µM | 
COC(=O)c1cccc(COc2c(-c3ccc(OCCOCCOCCn4cc(-c5ccc(-c6cn(CCOCCOCCOc7ccc(-c8oc9ccccc9c(=O)c8OCc8cccc(C(=O)OC)c8)cc7)nn6)cc5)nn4)cc3)oc3ccccc3c2=O)c1 | > 100 µM | > 100 µM | > 100 µM | 
COC(=O)c1cccc(COc2c(-c3ccc(OCCOCCn4cc(-c5cccc(-c6cn(CCOCCOc7ccc(-c8oc9ccccc9c(=O)c8OCc8cccc(C(=O)OC)c8)cc7)nn6)c5)nn4)cc3)oc3ccccc3c2=O)c1 | > 100 µM | > 100 µM | > 100 µM | inhibition (INH) [8]: Dose-dependent effect; FC [9]: 11 to 12; Activity [10]: inactive; Activity [11]: inactive
COc1cc2c(cc1OC)CN(CCc1ccc(NC(=O)c3cc(OC)c(OC)cc3NC(=O)c3cnc4ccccc4c3)cc1)CC2 |  |  |  | EC50 [4]: 0.1 µM
COC(=O)c1cccc(COc2c(-c3ccc(OCCOCCOCCn4cc(CN(Cc5cn(CCOCCOCCOc6ccc(-c7oc8ccccc8c(=O)c7OCc7cccc(C(=O)OC)c7)cc6)nn5)c5ccccc5)nn4)cc3)oc3ccccc3c2=O)c1 | > 100 µM | > 100 µM | > 100 µM | 
COC(=O)c1cccc(COc2c(-c3ccc(OCCOCCOCCn4cc(CN(Cc5ccccc5)Cc5cn(CCOCCOCCOc6ccc(-c7oc8ccccc8c(=O)c7OCc7cccc(C(=O)OC)c7)cc6)nn5)nn4)cc3)oc3ccccc3c2=O)c1 | > 100 µM | > 100 µM | > 100 µM | 
COC(=O)c1cccc(COc2c(-c3ccc(OCCOCCn4cc(COCc5cn(CCOCCOc6ccc(-c7oc8ccccc8c(=O)c7OCc7cccc(C(=O)OC)c7)cc6)nn5)nn4)cc3)oc3ccccc3c2=O)c1 | > 100 µM | > 100 µM | > 100 µM | 
COc1ccc2c3c([nH]c2c1)[C@H](CC(C)C)N1C(=O)[C@H](CCC(=O)OC(C)(C)C)NC(=O)[C@@H]1C3 | 56.5 µM | 31.4 µM | > 100 µM | 
COC(=O)c1cccc(COc2c(-c3ccc(OCCOCCn4cc(CN(Cc5ccccc5)Cc5cn(CCOCCOc6ccc(-c7oc8ccccc8c(=O)c7OCc7cccc(C(=O)OC)c7)cc6)nn5)nn4)cc3)oc3ccccc3c2=O)c1 | > 100 µM | > 100 µM | > 100 µM | 
